Reference: patent US8455649B2, “Insecticidal substituted azinyl derivatives” (Dow AgroSciences, LLC, priority 2007, dated 2013)
Where two headings read alike, the source gives them in different places.

Legend:
[1] = tested on: Corn Earworm (Helicoverpa zea); assay: Insecticidal diet-surface test for corn earworm; assay type: in vivo; settings: 120 h, read-out: HELIZE AVG % Mortality (50 μg/cm^2)
Experimental: (§1) The compounds identified in Table 1 were tested against beet armyworm and corn earworm as follows:
(§2) Insecticidal Test for Corn Earworm (Helicoverpa zea) and Beet Armyworm (Spodoptera exigua).
(§3) To prepare test solution, the test compound was formulated at 2000 ppm solution as 4 mg/2 mL of 9 acetone:1 tap water. 50 μL of the 2000 ppm (equivalent to 50 μg/cm^2 dose on diet surface area) test solution was pipetted upon the surface of 1 mL of lepidopteran diet (Southland Multi-Species Lepidopteran Diet) contained in each of eight wells per insect species (one well=1 replication). A second-instar corn earworm and beet armyworm was placed upon the treated diet in each well once the solvent had air-dried. Trays containing the treated diet and larvae were covered and then held in a growth chamber at 25° C., 50-55% RH, and 16 hr light:8 hr dark for 5 days. Observation were conducted 5 days after treatment and infestation. The number of dead insects of 8 per species per treatment was then determined and the results are given in Table 2 as a percent control at a dose of […].

[2] = tested on: Beet Armyworm (Spodoptera exigua); assay: Insecticidal diet-surface test for beet armyworm; assay type: in vivo; settings: 120 h, read-out: LAPHEG AVG % Mortality (50 μg/cm^2)
Experimental: as §1, §2, §3

[3] = second-instar larvae on treated diet, 50 μg/cm^2 on diet surface, 5 days after treatment, 8 insects per treatment

SMILES | mortality at 50 µg/cm2 [1, 3] | mortality at 50 µg/cm2 [2, 3] | mortality at 50 µg/cm2 [1] | mortality at 50 µg/cm2 [2]
CCOCN(C(=O)N(COCc1ccccc1)c1nc(OCC(F)(F)F)cc(OCC(F)(F)F)n1)c1ccc(C(F)(F)F)cc1 [Compound 33, N-Benzyloxymethyl-N-[4,6-bis(2,2,2-trifluoroethoxy)pyrimidin-2-yl]-N′-ethoxymethyl-N′-[4-(trifluoromethyl)phenyl]urea] | 100% | 100% |  | 
CN(C(=O)Nc1nc(OCC(F)(F)F)cc(OCC(F)(F)F)c1F)c1ccc(OC(F)(F)F)cc1 [Compound 185] | 100% | 100% |  | 
CN(C(=O)Nc1nc(OCC(F)(F)F)cc(OCC(F)(F)F)n1)c1ccc(Cl)cn1 [Compound 124] | 100% | 100% |  | 
CN(C(=O)Nc1nc(OCC(F)(F)F)cc(OCC(F)(F)F)n1)c1ccc(C(F)(F)F)nc1 [Compound 47] | 100% | 100% |  | 
O=C(Nc1ccc(C(F)(F)F)cc1)Nc1nc(OCC(F)(F)F)cc(OCC(F)(F)F)n1 [Compound 1, N′-[4,6-bis(2,2,2-trifluoroethoxy)pyrimidin-2-yl]-N-[4-(trifluoro-methyl)phenyl]urea] | 100% | 100% |  | 
O=C(Nc1ccc(Br)cc1)Nc1nc(OCC(F)(F)F)c(Cl)c(OCC(F)(F)F)n1 [Compound 137] | 100% | 88% |  | 
CN(C)CCN(C(=O)Nc1nc(OCC(F)(F)F)cc(OCC(F)(F)F)n1)c1ccc(OC(F)(F)F)cc1 [Compound 70] | 100% | 100% |  | 
CCOCN(C(=O)Nc1nc(OCC(F)(F)F)cc(OCC(F)(F)F)n1)c1ccc(C(F)(F)F)cc1 [Compound 34, N′-[4,6-Bis(2,2,2-trifluoroethoxy)pyrimidin-2-yl]-N-ethoxymethyl-N-(4-trifluoromethylphenyl)urea] | 100% | 100% |  | 
CN(C(=O)Nc1nc(OCC(F)(F)F)cc(OCC(F)(F)F)n1)c1ccc(Cl)cc1Cl [Compound 149] | 100% | 100% |  | 
Cc1c(OCC(F)(F)F)nc(NC(=O)Nc2ccc(C(F)(F)F)nc2)nc1OCC(F)(F)F [Compound 143] | 100% | 100% |  | 
O=C(Nc1ccc(C(F)(F)F)cc1)Nc1nc(OCC(F)(F)F)c(Cl)c(OCC(F)(F)F)n1 [Compound 145] | 0% | 100% |  | 
O=C(Nc1ccc(Br)cc1)N(COCc1ccccc1)c1nc(OCC(F)(F)F)cc(OCC(F)(F)F)n1 [Compound 63] | 100% | 100% |  | 
COCCN(C(=O)Nc1nc(OCC(F)(F)F)cc(OCC(F)(F)F)n1)c1ccc(OC(F)(F)F)cc1 [Compound 50] | 100% | 100% |  | 
COCN(C(=O)N(COCc1ccccc1)c1nc(OCC(F)(F)F)cc(OCC(F)(F)F)n1)c1ccc(C(F)(F)F)nc1 [Compound 89] | 100% | 100% |  | 
CN(C(=O)Nc1nc(OCC(F)(F)F)cc(OCC(F)(F)F)n1)c1ccc(F)cc1F [Compound 150] | 75% | 100% |  | 
CN(C(=O)Nc1cc(OCC(F)(F)F)nc(OCC(F)(F)F)n1)c1ccc(Cl)cc1 [Compound 112] | 100% | 50% |  | 
COCCOCN(C(=O)N(COCc1ccccc1)c1nc(OCC(F)(F)F)cc(OCC(F)(F)F)n1)c1ccc(C(F)(F)F)cc1 [Compound 52] | 100% | 100% |  | 
CN(C(=O)Nc1nc(OCC(F)(F)F)cc(OCC(F)(F)F)n1)c1ccc(C(F)(F)F)cc1 [Compound 31] | 100% | 100% |  | 

SMILES | mortality at 50 µg/cm2 [1, 3] | mortality at 50 µg/cm2 [2, 3] | mortality at 50 µg/cm2 [1] | mortality at 50 µg/cm2 [2]
O=C(Nc1ccc(C(F)(F)F)cc1)N(COCc1ccccc1)c1nc(OCC(F)(F)F)cc(OCC(F)(F)F)n1 [Compound 19, N-Benzyloxymethyl-N-[4,6-bis-(2,2,2-trifluoroethoxy)pyrimidin-2-yl]-N′-[(4-trifluoromethyl)phenyl]urea] | 100% | 100% |  | 
CN(C(=O)Nc1nc(OCC(F)(F)F)cc(OCC(F)(F)F)n1)c1ccc(S(=O)(=O)C(F)(F)F)cc1 [Compound 94] | 100% | 100% |  | 
CN(C(=O)Nc1nc(OCC(F)(F)F)cc(OCC(F)(F)F)n1)c1ccc(OC(F)(F)C(F)F)cc1 [Compound 29] | 100% | 100% |  | 
O=C(Nc1nc(OCC(F)(F)F)cc(OCC(F)(F)F)n1)Nc1ccccc1OC(F)(F)F [Compound 134] | 100% | 100% |  | 
CN(C(=O)Nc1nc(OCC(F)(F)F)cc(OCC(F)(F)F)n1)c1ccc(C(F)(F)F)cn1 [Compound 122] | 88% | 100% |  | 
CN(C(=O)Nc1nc(OCC(F)(F)F)cc(OCC(F)(F)F)n1)c1ccc(OC(F)(F)F)cc1 [Compound 7, N′-[4,6-bis(2,2,2-trifluoroethoxy)pyrimidin-2-yl]-N-methyl-N-[4-(trifluoromethoxy)phenyl]urea] | 100% | 100% |  | 
O=C(Nc1ccc([N+](=O)[O-])cc1)Nc1nc(OCC(F)(F)F)cc(OCC(F)(F)F)n1 [Compound 56] | 100% | 0% |  | 
CON(C(=O)Nc1nc(OCC(F)(F)F)cc(OCC(F)(F)F)n1)c1ccc(Cl)cc1 [Compound 65, N′-[4,6-bis(2,2,2-trifluoroethoxy)pyrimidin-2-yl]-N-(4-chlorophenyl)-N-methoxyurea] | 100% | 100% |  | 
CN(C(=O)Nc1nc(OCC(F)(F)F)cc(OCC(F)(F)F)n1)c1ccc(SC(F)(F)F)cc1 [Compound 80] | 100% | 100% |  | 
O=C(Nc1nc(OCC(F)(F)F)cc(OCC(F)(F)F)n1)N(CCF)c1ccc(OC(F)(F)F)cc1 [Compound 95] | 100% | 100% |  | 
CCOCN(C(=O)N(COCc1ccccc1)c1nc(OCC(F)(F)F)cc(OCC(F)(F)F)n1)c1ccc(Br)cc1 [Compound 67] | 100% | 100% |  | 
O=C(Nc1ccc(C(F)(F)C(F)(F)F)cc1)Nc1nc(OCC(F)(F)F)cc(OCC(F)(F)F)n1 [Compound 151] | 100% | 100% |  | 
CN(C(=O)Nc1nc(OCC(F)(F)F)cc(OCC(F)(F)F)n1)c1ccc([N+](=O)[O-])cc1 [Compound 79] | 100% | 100% |  | 
O=C(Nc1ccc(OC(F)(F)F)cc1)Nc1cc(OCC(F)(F)F)nc(OCC(F)(F)F)n1 [Compound 115] | 75% | 38% |  | 
CC(Oc1ccc(NC(=O)Nc2nc(OCC(F)(F)F)cc(OCC(F)(F)F)n2)cc1)C(F)(F)F (stereo not drawn) [Compound 17] | 0% | 100% |  | 
CN(C(=O)Nc1nc(OCC(F)(F)F)cc(OCC(F)(F)F)n1)c1ccc(OCC(F)F)cc1 [Compound 71] | 100% | 100% |  | 
N#Cc1ccc(NC(=O)Nc2nc(OCC(F)(F)F)cc(OCC(F)(F)F)n2)cc1Cl [Compound 55] |  |  | 100% | 0%
N#CCN(C(=O)Nc1nc(OCC(F)(F)F)cc(OCC(F)(F)F)n1)c1ccc(OC(F)(F)F)cc1 [Compound 77] | 100% | 100% |  | 
